Laboratory results: ChEMBL document CHEMBL1201862, “PubChem BioAssay data set” (2004)
Active and inactive are the calls of the source.

Assays:
Genome polyprotein = Genome polyprotein (Hepatitis C virus, UniProt Q2Q167); assay: HCV core protein dimerization inhibitors, dose response, biochemical, TR-FRET (AID 2159); design: species or system Hepacivirus hominis;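 also: blocks dimerization of HCV core protein measured by TR-FRET between tagged core106 pairs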
[1] = target: T1, Voltage-gated N-type calcium channel alpha-1B subunit/Amyloid beta A4 precursor protein-binding family A member 1 (Homo sapiens, UniProt Q00975+Q02410); format: protein assay
T1 sequence (Q00975 whole entry): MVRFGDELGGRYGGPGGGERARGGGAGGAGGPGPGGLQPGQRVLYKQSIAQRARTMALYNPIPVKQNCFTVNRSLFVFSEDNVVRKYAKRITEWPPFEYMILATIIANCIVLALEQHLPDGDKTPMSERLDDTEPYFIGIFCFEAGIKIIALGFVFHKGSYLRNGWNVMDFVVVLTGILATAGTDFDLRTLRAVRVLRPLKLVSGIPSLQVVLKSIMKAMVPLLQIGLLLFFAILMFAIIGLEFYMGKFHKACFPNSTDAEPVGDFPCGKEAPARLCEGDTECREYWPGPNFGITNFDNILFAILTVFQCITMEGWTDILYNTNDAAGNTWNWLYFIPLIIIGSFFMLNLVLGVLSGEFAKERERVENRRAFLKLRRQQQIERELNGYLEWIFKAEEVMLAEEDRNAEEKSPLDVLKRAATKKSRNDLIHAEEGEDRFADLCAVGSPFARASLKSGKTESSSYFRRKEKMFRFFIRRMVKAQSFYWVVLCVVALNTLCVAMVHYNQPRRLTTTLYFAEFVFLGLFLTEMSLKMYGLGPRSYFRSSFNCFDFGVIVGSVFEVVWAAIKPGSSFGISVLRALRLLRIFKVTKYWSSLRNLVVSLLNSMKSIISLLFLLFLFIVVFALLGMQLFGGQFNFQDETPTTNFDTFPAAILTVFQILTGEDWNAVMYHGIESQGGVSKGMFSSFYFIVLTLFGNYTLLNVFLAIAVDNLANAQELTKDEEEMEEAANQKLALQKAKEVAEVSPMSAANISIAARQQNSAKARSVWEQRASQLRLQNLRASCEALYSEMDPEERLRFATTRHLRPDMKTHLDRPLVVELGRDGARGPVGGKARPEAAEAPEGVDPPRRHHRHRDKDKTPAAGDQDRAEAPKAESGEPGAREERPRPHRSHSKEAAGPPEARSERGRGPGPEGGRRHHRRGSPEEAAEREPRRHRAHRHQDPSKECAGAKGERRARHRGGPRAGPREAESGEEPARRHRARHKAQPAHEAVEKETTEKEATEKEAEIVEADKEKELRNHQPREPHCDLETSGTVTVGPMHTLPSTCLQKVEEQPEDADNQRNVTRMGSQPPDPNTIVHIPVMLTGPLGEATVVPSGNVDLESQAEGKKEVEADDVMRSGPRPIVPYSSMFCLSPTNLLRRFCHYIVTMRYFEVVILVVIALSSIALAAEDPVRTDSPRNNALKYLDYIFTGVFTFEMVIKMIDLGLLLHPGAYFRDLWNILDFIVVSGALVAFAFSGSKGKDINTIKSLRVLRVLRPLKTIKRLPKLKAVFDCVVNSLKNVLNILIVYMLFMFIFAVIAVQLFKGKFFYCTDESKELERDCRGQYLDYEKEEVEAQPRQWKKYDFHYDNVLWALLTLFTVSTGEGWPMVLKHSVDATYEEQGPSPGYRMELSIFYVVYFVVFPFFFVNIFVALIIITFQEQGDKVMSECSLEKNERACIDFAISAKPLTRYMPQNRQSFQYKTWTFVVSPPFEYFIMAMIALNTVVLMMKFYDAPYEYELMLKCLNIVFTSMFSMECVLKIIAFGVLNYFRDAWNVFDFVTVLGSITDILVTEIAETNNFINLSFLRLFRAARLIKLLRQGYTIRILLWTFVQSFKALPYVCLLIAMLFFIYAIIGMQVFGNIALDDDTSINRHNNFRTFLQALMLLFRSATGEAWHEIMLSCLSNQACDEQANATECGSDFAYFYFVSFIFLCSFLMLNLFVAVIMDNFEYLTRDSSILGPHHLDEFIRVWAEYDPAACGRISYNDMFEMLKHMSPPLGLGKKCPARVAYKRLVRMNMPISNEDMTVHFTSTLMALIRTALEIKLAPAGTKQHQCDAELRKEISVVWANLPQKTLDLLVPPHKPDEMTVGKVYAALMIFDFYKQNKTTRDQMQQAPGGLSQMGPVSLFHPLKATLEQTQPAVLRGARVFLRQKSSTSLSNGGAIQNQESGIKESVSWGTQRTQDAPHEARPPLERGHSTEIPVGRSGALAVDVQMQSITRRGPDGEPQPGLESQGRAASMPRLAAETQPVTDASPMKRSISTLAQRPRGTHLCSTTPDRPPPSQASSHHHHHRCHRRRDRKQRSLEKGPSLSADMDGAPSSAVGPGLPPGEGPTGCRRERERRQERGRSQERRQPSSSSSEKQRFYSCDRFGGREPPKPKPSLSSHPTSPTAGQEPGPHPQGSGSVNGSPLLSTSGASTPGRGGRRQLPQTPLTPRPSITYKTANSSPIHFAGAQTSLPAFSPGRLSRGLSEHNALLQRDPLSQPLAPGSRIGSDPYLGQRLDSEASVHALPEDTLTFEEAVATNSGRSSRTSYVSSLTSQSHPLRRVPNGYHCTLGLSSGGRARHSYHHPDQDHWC
T1 sequence (Q02410 whole entry): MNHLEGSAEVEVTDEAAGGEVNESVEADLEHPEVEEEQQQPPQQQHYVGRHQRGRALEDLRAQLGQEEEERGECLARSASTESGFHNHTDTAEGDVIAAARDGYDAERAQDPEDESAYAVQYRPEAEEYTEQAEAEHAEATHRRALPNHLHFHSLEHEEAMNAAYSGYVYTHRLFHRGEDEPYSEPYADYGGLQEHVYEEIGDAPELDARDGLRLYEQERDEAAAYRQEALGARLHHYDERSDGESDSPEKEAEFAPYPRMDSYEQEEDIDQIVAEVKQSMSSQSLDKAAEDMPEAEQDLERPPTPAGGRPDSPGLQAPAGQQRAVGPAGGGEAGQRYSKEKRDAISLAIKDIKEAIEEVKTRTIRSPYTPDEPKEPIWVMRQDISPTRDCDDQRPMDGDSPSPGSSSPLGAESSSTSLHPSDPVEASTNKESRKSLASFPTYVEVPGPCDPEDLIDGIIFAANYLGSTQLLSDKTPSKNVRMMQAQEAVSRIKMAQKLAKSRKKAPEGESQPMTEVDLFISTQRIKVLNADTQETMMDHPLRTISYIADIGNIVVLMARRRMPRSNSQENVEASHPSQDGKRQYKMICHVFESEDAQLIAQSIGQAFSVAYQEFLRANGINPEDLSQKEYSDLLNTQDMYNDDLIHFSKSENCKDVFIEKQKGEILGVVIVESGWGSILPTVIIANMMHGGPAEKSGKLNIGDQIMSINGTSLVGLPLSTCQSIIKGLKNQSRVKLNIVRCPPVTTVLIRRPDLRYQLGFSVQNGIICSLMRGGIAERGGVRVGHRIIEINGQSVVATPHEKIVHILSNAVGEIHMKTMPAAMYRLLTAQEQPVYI

[2] = target: T2, Heat shock factor protein 1 (Mus musculus, UniProt P38532); assay: inhibition of MG132-induced HSE-luciferase signal, confirmation, cell-based, NIH3T3, luminescence, dose retest (AID 2382); format: functional;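 also: NIH3T3 fibroblasts with HSF1-driven luciferase reporter stressed by proteasome inhibitor MG132; luminescence from HSF1-driven luciferase expression after 8 hours of MG132 stress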
T2 sequence (P38532 whole entry): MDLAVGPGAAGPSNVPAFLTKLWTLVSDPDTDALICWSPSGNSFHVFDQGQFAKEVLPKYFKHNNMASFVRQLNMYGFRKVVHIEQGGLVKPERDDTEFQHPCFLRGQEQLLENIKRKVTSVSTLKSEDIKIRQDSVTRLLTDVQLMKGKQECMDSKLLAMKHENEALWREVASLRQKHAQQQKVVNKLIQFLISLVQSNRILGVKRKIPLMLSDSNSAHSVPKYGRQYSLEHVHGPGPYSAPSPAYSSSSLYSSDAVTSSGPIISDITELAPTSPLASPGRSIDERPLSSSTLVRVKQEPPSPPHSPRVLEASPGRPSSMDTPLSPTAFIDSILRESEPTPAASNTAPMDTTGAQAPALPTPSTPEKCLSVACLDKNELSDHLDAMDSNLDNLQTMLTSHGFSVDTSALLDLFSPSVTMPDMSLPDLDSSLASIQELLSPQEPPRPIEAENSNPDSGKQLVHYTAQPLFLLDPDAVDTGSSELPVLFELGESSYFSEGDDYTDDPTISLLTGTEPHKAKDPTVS

Large T antigen = Large T antigen (Simian virus 40, UniProt P03070); format: functional, Betapolyomavirus macacae;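 also: Confirmatory-stage PubChem screen for compounds that inhibit SV40 T antigen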
[3] = target: T1, Voltage-gated N-type calcium channel alpha-1B subunit/Amyloid beta A4 precursor protein-binding family A member 1; format: protein assay; remark: listed apart in the source
Estrogen receptor beta [4] = target: T3, Estrogen receptor beta (Homo sapiens, UniProt Q92731); assay: ERβ–SRC-3 coactivator interaction inhibitors, confirmation, orthogonal assay, biochemical, ELISA, streptavidin-HRP readout (AID 1060)
T3 sequence (Q92731 whole entry): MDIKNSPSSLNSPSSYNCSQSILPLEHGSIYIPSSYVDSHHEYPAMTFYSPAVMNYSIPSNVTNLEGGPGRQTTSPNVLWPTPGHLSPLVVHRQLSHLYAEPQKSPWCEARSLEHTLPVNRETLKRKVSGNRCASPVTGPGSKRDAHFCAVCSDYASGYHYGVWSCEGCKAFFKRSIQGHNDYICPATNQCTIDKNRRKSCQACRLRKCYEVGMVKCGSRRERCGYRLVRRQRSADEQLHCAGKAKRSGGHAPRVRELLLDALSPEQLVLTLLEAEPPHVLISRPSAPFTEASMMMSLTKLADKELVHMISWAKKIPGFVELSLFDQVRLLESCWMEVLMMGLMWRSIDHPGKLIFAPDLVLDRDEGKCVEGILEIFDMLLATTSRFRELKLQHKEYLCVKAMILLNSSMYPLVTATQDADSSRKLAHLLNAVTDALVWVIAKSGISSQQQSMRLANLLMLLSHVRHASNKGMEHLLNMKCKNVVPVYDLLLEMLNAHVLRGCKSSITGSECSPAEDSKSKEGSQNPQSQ

[5] = target: Protein-tyrosine kinase 2-beta (Homo sapiens, UniProt Q14289);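 also: potency of inhibitors of PYK2 kinase phosphorylation of poly-GT substrate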
[6] = target: Induced myeloid leukemia cell differentiation protein Mcl-1 (Homo sapiens, UniProt Q07820); format: functional
Chain of Induced myeloid leukemia cell differentiation protein Mcl-1 (Q07820 whole entry): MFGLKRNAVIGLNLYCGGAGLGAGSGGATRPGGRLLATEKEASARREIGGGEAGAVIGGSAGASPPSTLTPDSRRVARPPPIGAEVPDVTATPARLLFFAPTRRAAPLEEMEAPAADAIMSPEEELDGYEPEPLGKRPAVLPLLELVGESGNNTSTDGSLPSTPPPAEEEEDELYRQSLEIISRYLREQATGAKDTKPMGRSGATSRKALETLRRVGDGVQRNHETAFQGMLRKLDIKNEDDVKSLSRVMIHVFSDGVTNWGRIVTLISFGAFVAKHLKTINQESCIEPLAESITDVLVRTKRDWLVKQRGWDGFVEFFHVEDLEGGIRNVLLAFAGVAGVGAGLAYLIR

[7] = target: T1, Voltage-gated N-type calcium channel alpha-1B subunit/Amyloid beta A4 precursor protein-binding family A member 1; assay: disruptors of Mint-PDZ/N-type channel peptide interaction – biochemical, HTRF, set 2, SAR follow-up (AID 434980); format: functional
[8] = target: T1, Voltage-gated N-type calcium channel alpha-1B subunit/Amyloid beta A4 precursor protein-binding family A member 1; assay: disruptors of Mint-PDZ/N-type channel peptide interaction – biochemical, HTRF, SAR follow-up (AID 2489); format: functional
Albumin = Albumin (Bos taurus, UniProt P02769); assay: Counterscreen for inhibitors of T-cell receptor (TCR)-CD3 interaction: Fluorescence-based biochemical high throughput dose response assay to identify inhibitors of T-cell receptor (TCR)-CD3 interaction using a TAMRA-labeled BSA probe.; format: functional
NADPH oxidase 1 = NADPH oxidase 1 (Homo sapiens, UniProt Q9Y5S8); assay: Late-stage luminescence-based cell-based dose response assay to identify inhibitors of NADPH oxidase 1 (NOX1): Synthesized analogs.; format: functional
Chain of NADPH oxidase 1 (Q9Y5S8 whole entry): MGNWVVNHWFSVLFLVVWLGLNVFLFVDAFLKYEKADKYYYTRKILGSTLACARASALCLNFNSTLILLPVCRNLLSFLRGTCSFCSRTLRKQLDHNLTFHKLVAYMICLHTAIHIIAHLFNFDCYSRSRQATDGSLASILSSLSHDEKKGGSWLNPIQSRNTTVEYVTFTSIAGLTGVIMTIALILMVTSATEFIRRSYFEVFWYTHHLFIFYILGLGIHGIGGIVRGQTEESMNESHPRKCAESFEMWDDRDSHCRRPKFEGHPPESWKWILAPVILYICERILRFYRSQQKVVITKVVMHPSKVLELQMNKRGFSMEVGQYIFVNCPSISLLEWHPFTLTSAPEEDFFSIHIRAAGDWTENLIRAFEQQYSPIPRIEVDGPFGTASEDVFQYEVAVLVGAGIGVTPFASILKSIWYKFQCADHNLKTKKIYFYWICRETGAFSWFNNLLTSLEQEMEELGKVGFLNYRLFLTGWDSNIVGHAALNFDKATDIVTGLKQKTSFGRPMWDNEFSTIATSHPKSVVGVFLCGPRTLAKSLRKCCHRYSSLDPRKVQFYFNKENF

Vero = assay: West Nile virus antiviral activity, cell-based, CPE readout (AID 1621); format: functional; conditions: Chlorocebus sabaeus
[9] = cytotoxicity in HEK-293T cells, dose response, cytotoxicity control for TCR NF-kB inhibitor project, luminescence, T-cell screen hits (AID 489026); format: functional, cell-based;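 also: cells exposed to compound about 14 hours before the viability readout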
[10] = target: T4, Microphthalmia-associated transcription factor (Homo sapiens, UniProt O75030); assay: TRPM1 promoter luciferase signal decrease, dose response, MITF inhibitor project, cell-based, SK-MEL-5, cherry-picked, set 3 (AID 493073); format: functional
T4 sequence (O75030 whole entry): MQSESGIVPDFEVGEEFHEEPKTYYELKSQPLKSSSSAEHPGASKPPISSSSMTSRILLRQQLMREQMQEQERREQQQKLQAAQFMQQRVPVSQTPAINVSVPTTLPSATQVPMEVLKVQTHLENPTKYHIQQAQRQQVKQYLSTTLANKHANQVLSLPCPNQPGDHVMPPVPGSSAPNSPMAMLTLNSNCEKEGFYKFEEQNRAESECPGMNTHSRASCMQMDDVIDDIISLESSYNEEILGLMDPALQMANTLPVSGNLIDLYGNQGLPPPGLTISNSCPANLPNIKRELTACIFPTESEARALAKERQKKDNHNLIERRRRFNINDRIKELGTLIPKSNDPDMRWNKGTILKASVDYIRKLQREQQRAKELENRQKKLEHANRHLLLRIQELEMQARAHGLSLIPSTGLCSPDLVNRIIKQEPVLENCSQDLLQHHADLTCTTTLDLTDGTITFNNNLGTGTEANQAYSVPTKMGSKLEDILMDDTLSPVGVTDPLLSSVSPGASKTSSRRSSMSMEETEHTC

Heat shock protein HSP90 = Heat shock protein HSP90 (Homo sapiens, UniProt P07900+P08238); assay: tumor Hsp90 inhibitor potency, dose response (AID 712); format: functional
Estrogen receptor = target: T5, Estrogen receptor (Homo sapiens, UniProt P03372);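 also: potency for inhibiting coactivator peptide recruitment to the receptor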
T5 sequence (P03372 whole entry): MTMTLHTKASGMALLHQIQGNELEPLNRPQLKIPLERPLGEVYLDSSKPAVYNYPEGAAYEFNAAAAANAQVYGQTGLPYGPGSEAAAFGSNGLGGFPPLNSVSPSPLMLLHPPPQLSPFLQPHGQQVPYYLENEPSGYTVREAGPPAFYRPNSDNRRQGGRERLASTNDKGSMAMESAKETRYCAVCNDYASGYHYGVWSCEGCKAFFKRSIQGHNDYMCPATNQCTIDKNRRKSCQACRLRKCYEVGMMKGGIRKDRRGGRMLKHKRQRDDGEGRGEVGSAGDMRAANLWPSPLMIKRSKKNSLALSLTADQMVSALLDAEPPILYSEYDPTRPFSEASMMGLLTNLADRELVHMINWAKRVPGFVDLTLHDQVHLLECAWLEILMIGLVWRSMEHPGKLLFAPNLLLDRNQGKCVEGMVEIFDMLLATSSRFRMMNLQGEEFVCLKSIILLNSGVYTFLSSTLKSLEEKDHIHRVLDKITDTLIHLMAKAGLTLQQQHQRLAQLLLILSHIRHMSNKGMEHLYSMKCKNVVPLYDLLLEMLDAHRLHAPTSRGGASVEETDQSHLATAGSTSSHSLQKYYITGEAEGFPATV

Estrogen receptor beta [11] = target: T3, Estrogen receptor beta
Trypsin = Trypsin (Sus scrofa, UniProt P00761); assay: porcine trypsin inhibitors, dose response, selectivity assay for Rce1 protease inhibitor project, biochemical, quenched peptide fluorescence, cherry-pick (AID 488789)
Chain of Trypsin (P00761 whole entry): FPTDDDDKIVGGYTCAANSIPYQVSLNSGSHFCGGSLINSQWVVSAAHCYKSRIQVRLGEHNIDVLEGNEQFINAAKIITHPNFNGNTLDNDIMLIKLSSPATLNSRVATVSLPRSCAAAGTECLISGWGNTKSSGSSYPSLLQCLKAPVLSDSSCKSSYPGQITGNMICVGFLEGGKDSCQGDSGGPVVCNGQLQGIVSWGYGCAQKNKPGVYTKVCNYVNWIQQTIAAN

CAAX prenyl protease 2 = target: T6, CAAX prenyl protease 2 (Homo sapiens, UniProt Q9Y256); assay: human Rce1 protease inhibitors, dose response, biochemical, yeast membranes, quenched-peptide fluorescence, cherry-pick (AID 588849)
T6 sequence (Q9Y256 whole entry): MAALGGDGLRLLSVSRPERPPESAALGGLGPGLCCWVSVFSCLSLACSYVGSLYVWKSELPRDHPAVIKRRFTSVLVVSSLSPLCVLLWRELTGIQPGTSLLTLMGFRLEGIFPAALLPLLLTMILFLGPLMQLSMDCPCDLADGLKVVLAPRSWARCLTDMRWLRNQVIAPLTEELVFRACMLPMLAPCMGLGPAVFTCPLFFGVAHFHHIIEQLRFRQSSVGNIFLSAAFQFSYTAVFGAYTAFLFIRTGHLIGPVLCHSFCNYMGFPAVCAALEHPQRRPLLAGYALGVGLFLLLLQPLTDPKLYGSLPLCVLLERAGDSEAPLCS

[12] = HIV-1 Env-mediated cell fusion inhibitors, dose response, CCR5-tropic Env (AID 2279); format: functional
[13] = target: Heat shock protein HSP 90-alpha (Homo sapiens, UniProt P07900); assay: Luminescence-based dose response biochemical high throughput screening assay for inhibitors of the Heat Shock Protein 90 (HSP90). [Related pubchem assays: 1831 (Summary AID.), 1846 (Confirmation screen.), 1789 (Primary screen.)]
[14] = target: T7, Long-chain-fatty-acid--AMP ligase FadD28 (Mycobacterium tuberculosis, UniProt P9WQ59); assay: Fluorescence polarization aasay to screen for inhibitors that compete for the binding of FadD28 to a bisubstrate Measured in Biochemical System Using Plate Reader - 2147-01_Inhibitor_Dose_CherryPick_Activity.; format: functional, Mycobacterium tuberculosis H37Rv
T7 sequence (P9WQ59 whole entry): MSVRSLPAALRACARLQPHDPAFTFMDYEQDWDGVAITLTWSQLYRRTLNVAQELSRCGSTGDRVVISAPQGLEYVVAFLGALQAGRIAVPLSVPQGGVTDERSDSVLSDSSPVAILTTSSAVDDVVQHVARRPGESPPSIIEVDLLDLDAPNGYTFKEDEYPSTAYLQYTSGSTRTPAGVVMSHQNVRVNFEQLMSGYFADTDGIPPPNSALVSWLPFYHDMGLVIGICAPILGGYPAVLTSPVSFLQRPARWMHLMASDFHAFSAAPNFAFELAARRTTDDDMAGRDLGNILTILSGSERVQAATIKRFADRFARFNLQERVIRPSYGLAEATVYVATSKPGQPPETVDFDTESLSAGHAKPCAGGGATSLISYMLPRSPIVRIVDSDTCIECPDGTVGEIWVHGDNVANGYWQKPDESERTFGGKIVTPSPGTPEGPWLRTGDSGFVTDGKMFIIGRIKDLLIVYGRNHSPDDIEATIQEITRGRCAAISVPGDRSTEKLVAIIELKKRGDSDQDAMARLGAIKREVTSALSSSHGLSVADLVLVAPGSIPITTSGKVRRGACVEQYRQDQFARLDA

[15] = target: T8, Histone-lysine N-methyltransferase NSD2 (Homo sapiens, UniProt O96028); format: biochemical
T8 sequence (O96028 whole entry): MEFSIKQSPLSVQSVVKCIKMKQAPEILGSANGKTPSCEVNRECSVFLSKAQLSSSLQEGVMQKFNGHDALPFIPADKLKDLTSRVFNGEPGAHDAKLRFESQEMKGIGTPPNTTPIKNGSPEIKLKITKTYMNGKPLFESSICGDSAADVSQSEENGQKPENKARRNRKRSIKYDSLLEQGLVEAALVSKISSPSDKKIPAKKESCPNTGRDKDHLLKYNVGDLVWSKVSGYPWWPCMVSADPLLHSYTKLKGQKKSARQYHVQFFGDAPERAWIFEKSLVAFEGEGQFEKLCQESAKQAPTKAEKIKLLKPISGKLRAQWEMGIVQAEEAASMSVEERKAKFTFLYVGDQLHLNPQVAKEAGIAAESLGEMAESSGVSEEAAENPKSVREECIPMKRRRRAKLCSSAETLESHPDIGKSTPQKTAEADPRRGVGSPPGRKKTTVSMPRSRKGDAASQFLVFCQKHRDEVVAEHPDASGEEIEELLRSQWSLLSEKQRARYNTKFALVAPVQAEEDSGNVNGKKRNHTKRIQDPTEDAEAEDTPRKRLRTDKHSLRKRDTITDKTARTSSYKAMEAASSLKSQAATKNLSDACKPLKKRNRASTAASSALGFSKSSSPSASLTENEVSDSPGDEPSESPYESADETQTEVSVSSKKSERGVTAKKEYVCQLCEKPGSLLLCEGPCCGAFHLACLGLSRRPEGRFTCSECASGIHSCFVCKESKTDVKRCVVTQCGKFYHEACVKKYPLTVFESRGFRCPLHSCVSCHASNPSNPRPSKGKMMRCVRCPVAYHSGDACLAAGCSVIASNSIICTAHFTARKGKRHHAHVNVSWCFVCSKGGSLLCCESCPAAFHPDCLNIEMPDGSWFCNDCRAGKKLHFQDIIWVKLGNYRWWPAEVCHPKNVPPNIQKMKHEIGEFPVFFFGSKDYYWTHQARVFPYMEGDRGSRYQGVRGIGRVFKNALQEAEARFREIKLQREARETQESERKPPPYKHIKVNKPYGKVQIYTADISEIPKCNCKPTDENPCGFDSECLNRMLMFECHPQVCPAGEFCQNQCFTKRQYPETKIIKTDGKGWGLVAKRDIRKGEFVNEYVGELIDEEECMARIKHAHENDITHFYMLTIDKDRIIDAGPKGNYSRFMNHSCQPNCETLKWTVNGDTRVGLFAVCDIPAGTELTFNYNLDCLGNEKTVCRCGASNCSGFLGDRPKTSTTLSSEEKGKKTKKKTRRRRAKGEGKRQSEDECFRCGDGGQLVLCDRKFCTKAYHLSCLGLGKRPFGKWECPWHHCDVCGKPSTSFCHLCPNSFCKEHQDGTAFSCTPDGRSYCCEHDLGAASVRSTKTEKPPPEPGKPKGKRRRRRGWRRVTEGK

Chain of Genome polyprotein (Q2Q167 whole entry): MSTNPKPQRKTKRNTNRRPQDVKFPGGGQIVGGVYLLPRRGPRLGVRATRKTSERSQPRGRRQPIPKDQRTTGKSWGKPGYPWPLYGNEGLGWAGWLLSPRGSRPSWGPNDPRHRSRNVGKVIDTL

SMILES: Nc1ncnc2oc(-c3ccco3)c(-c3ccco3)c12
- IC50 (Genome polyprotein): > 49.8 µM (not active)
- IC50 [1]: 3.82 µM (active)
- EC50 [2]: 56.7 µM (active)
- IC50 (Large T antigen): 49.5 µM (active)
- IC50 [3]: 2.6 µM (active)
- IC50 (Estrogen receptor beta [4]): 3.4 µM (not active)
- IC50 [5]: 2.92 µM (active)
- IC50 [6]: 4.12 µM (active)
- IC50 [7]: 2.42 µM (active)
- IC50 [8]: 21.7 µM (active)
- IC50 (Albumin): > 94.1 µM (inactive)

SMILES: CC(=NNc1cccc(C(=O)O)c1)c1ccc2c(c1)Nc1ccccc1S2
- IC50 (NADPH oxidase 1): 0.305 µM (active)

SMILES: CC(C)c1oc(=O)cc2c1[C@@H](O)[C@H]1OC(=O)[C@@]3(C)C[C@@H](O)[C@@H](O)[C@@]2(C)C13 (stereo partly specified)
- IC50 (Vero): 30.5 µM (active)
- IC50 [9]: > 80 µM (inactive)
- AC50 [10]: 1.63 µM (active)

SMILES: COc1ccc(OC)c(/C=N/c2oc(-c3ccco3)c(-c3ccco3)c2C#N)c1
- IC50 (Heat shock protein HSP90): 21.1062 µM
- IC50 (Estrogen receptor): 16.3 µM (active)
- IC50 (Estrogen receptor beta [11]): 6.47 µM (active)
- IC50 (Estrogen receptor beta [4]): 9.23 µM (not active)
- IC50 [6]: 6.88 µM (active)
- AC50 (Trypsin): 7.23 µM (active)
- AC50 (CAAX prenyl protease 2): 4.46 µM (active)

SMILES: COc1ccc(C(=O)Oc2ccc(/C=N/Nc3ccc(Cl)c(C(=O)O)c3)cc2OC)cc1
- IC50 [12]: 7.02 µM (active)
- IC50 [13]: 1.5 µM (active)
- AC50 [14]: 99.3 µM (active)
- AC50 [15]: > 20 µM (inactive)
